This is an account of results in publication PMC6017736, “Indole-3-Carbonitriles as DYRK1A Inhibitors by Fragment-Based Drug Design” (Molecules : A Journal of Synthetic Chemistry and Natural …, 2018).

In data set [1] the target is T1, DYRK1A (Homo sapiens, UniProt Q13627). The data set can be described thus: Protein kinase assay ([γ-33P]-ATP, RS peptide substrate), DYRK1A. Type of data set: biochemical. The note with it: for remaining activity at 10 µM: 10 µM compound, compared to controls, read-out: Residual Activity at 10 µM DYRK 1A; for IC50: 15 µM ATP, read-out: IC50 DYRK 1A.
In another data set the target is DYRK1B (Homo sapiens, UniProt Q9Y463). The data set can be described thus: Protein kinase assay ([γ-33P]-ATP, RS peptide substrate), DYRK1B. The class given is biochemical. The note with it: for remaining activity at 10 µM: 10 µM compound, compared to controls, read-out: Residual Activity at 10 µM DYRK 1B; for IC50: 15 µM ATP, read-out: IC50 DYRK 1B. The method, then:
(§1) DYRK1A, 1B, 2, 3 (human, recombinant, expressed in E. coli as GST fusion proteins) and CLK1, 2, 3, and 4 (mouse, recombinant, expressed in E. coli as GST fusion proteins) were assayed as described for GSK-3 in Buffer A (supplemented extemporaneously with 0.15 mg BSA/mL + 1 mM DTT) with 1 µg of RS peptide ([…]) as a substrate.

In another data set the target is T2, DYRK2 (Homo sapiens, UniProt Q92630).
T2 sequence (Q92630 1-601): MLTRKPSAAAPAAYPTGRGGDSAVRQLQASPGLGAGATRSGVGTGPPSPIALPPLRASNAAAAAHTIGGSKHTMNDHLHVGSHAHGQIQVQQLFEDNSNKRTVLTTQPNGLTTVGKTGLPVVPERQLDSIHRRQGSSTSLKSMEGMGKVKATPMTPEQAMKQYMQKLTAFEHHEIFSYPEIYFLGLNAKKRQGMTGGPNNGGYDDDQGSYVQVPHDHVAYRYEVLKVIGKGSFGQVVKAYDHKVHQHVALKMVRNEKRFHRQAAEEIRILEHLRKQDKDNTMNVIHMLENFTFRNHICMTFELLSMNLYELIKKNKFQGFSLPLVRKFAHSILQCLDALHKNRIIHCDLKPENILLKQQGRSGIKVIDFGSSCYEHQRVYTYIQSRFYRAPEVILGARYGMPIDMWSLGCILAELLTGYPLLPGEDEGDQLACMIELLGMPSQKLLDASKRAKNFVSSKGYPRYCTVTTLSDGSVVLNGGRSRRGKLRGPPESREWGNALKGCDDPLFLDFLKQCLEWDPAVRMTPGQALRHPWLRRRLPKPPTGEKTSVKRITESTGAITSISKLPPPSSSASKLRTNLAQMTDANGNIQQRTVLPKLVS
The data set can be described thus: Protein kinase assay ([γ-33P]-ATP, RS peptide substrate), DYRK2. The class given is biochemical. The note with it: for remaining activity at 10 µM: compared to controls, read-out: Residual Activity at 10 µM DYRK2; for IC50: 15 µM ATP. The method, then: as §1

For another data set, the target named is T3, DYRK3 (Homo sapiens, UniProt O43781).
T3 sequence (O43781 1-588): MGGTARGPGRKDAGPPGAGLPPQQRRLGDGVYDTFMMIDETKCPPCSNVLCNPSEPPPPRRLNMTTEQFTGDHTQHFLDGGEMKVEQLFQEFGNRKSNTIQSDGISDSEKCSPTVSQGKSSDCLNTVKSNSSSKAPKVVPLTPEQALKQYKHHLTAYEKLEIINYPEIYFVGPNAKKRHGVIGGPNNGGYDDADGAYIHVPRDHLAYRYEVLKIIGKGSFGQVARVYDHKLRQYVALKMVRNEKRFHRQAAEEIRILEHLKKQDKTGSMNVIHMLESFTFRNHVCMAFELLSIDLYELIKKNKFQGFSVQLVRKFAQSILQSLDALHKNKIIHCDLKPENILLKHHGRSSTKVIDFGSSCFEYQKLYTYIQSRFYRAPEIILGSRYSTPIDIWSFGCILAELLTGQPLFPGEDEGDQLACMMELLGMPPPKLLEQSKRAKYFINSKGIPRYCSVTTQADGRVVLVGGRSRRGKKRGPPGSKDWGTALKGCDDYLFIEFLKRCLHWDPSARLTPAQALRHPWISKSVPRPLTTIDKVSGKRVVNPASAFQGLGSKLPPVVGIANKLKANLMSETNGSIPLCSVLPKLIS
As to the kind of experiment: Protein kinase assay ([γ-33P]-ATP, RS peptide substrate), DYRK3. Type of data set: biochemical. The note with it: for remaining activity at 10 µM: compared to controls, read-out: Residual Activity at 10 µM DYRK3; for IC50: 15 µM ATP. The method, then: as §1

The target of a further data set is CLK1 (Mus musculus, UniProt P22518). The data set can be described thus: Protein kinase assay ([γ-33P]-ATP, RS peptide substrate), CLK1. The class given is biochemical. Particulars: for remaining activity at 10 µM: 10 µM compound, compared to controls, read-out: Residual Activity at 10 µM CLK1; for IC50: 15 µM ATP. As to the method: as §1
The target of a further data set is CLK2 (Mus musculus, UniProt O35491). The data set can be described thus: Protein kinase assay ([γ-33P]-ATP, RS peptide substrate), CLK2. Type of data set: biochemical. Particulars: for remaining activity at 10 µM: compared to controls, read-out: Residual Activity at 10 µM CLK2; for IC50: 15 µM ATP. As to the method: as §1
The next data set concerns the target CLK3 (Mus musculus, UniProt O35492). The data set can be described thus: Protein kinase assay ([γ-33P]-ATP, RS peptide substrate), CLK3. Type of data set: biochemical. The note with it: for remaining activity at 10 µM: compared to controls, read-out: Residual Activity at 10 µM CLK3; for IC50: 15 µM ATP. As to the method: as §1
The next data set addresses CLK4 (Mus musculus, UniProt O35493). The data set can be described thus: Protein kinase assay ([γ-33P]-ATP, RS peptide substrate), CLK4. The class given is biochemical. The note with it: for remaining activity at 10 µM: 10 µM compound, compared to controls, read-out: Residual Activity at 10 µM CLK4; for IC50: 15 µM ATP. As to the method:
as §1

For data set [2], the target named is T1, DYRK1A. The data set can be described thus: Ligand-lipophilicity efficiency (pIC50 minus calculated logP). The note with it: Table S2. As to the method: All new compounds were evaluated based on their physicochemical properties regarding Lipinski’s rule of five and the ligand-lipophilicity efficiency (LLE). Both concepts are used to assess the druglikeness of drug development candidates. […] LLE is calculated from pIC50 minus calculated logP [46].

A further data set deals with GSK-3. The data set can be described thus: Protein kinase assay ([γ-33P]-ATP, GS-1 substrate), GSK-3. The note with it: 10 µM compound; for Residual Activity at 10 µM GSK3: compared to controls.
Data set [3] can be described thus: Cytotoxicity, cell viability by tetrazolium dye assay (XTT assay). Type of data set: cell-based. Particulars: human, HeLa cells, 1 µM, read-out: Viability of treated HeLa cells relative to control cells. The method, then: To evaluate the applicability of the 2-substituted indole-3-carbonitrile compounds in cell culture experiments, we assessed toxicity of 6f, 6h, 6s and 13b on HeLa cells by viability assays (Table 4).
The inhibitors were added to the cultured cells from stock solutions in DMSO to the desired final concentration. For cytotoxicity assays, HeLa cells were grown in 96-well plates (20,000–30,000 cells per well) and incubated with the test compounds for 3 days before cell viability was evaluated with the help of a tetrazolium dye assay (XTT assay, AppliChem GmbH, Darmstadt, Germany).
For orientation: Tetrazolium assays rely on reduction of a dye to a coloured formazan, in cell work by metabolically active cells.

Structures are written as SMILES. Some results are limits rather than exact numbers.

DYRK1B, sequence (Q9Y463 whole entry, the tested form may be a part): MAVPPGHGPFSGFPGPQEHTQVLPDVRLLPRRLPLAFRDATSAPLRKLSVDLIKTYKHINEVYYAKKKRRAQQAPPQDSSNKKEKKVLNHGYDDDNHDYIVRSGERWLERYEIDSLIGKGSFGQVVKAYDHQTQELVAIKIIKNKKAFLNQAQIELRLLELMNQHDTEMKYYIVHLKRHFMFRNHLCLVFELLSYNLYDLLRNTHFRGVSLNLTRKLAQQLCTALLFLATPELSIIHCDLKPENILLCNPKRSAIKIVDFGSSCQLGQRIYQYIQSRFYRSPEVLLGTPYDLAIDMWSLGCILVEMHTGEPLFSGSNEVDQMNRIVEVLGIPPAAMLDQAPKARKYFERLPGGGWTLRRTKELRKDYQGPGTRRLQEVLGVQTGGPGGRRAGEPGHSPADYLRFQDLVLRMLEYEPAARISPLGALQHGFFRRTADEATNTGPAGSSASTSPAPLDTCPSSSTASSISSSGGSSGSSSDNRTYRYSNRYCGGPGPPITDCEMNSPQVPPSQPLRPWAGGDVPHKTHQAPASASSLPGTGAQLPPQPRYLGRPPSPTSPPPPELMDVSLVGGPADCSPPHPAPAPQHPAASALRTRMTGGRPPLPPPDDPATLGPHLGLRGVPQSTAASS
CLK2, sequence (O35491 whole entry): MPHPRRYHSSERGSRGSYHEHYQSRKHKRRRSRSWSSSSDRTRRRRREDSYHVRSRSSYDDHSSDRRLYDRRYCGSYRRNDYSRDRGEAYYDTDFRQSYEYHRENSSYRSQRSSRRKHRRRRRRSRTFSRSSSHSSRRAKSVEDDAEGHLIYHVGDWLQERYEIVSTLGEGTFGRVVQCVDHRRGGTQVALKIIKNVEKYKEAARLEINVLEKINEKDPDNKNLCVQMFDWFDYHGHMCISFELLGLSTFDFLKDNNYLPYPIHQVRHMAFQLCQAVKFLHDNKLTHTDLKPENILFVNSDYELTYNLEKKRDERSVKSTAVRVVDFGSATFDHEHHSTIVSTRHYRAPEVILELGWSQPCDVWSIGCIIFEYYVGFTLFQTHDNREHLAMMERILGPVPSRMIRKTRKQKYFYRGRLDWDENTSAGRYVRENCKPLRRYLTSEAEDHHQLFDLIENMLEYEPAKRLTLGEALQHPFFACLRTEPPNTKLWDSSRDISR
CLK4, sequence (O35493 whole entry): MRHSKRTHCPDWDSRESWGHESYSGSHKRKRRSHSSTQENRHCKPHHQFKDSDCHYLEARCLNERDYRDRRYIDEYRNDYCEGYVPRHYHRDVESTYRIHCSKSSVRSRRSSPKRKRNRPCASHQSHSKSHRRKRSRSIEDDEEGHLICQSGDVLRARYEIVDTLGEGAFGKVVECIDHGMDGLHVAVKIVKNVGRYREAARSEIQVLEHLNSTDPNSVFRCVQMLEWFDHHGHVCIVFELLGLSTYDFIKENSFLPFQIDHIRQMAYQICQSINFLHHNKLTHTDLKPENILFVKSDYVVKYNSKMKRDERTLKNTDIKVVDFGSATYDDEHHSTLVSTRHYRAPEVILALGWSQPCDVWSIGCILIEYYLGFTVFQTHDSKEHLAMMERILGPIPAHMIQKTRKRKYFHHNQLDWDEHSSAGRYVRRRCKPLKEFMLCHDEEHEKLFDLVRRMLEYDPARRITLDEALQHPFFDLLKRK
CLK3, sequence (O35492 whole entry): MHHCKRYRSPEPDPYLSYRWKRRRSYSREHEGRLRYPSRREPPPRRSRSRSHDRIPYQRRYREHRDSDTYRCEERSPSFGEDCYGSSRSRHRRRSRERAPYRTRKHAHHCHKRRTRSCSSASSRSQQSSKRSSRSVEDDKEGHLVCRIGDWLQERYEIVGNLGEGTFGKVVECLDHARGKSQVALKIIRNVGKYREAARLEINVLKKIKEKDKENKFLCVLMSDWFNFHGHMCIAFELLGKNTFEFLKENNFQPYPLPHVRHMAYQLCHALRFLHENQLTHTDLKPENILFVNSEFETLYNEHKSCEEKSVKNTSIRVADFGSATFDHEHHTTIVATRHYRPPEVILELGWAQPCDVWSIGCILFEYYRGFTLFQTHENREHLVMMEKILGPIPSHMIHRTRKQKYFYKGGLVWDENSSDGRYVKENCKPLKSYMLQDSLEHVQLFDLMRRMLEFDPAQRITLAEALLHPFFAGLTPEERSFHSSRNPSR
CLK1, sequence (P22518 whole entry): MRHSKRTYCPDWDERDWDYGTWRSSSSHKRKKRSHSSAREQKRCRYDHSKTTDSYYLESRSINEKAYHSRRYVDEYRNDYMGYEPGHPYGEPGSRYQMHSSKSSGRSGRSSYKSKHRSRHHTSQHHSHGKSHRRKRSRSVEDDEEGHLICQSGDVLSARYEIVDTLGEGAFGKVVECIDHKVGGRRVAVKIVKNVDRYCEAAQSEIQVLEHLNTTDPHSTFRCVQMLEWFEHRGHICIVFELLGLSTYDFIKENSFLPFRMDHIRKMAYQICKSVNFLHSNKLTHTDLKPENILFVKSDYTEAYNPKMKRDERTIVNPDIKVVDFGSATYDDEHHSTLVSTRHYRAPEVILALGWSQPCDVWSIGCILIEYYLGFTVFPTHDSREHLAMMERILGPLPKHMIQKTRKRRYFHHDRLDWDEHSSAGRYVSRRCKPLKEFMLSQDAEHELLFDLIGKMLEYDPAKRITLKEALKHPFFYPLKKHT
Method for GSK-3: First, the kinases were incubated with 10 µM solutions of the compounds and the residual activities compared to controls were measured.
Controls were performed with appropriate dilutions of DMSO. The GS-1 and RS peptide substrates were obtained from Proteogenix (Oberhausbergen, France).
After 30 min incubation at 30 °C, the reaction was stopped by harvesting onto P81 phosphocellulose supernatant (Whatman) using a FilterMate harvester (Packard) and washing in 1% phosphoric acid. Scintillation fluid was added and the radioactivity measured in a Packard counter [52].
All data points for construction of dose response curves were recorded in triplicate.

Consider `N#Cc1cn(Cc2ccccc2)c2c(Cl)cccc12` [Compound 13a, 1-Benzyl-7-chloro-1H-indole-3-carbonitrile], for which the remaining activity at 10 µM worked out at 97% on DYRK1A [1]; 78% on DYRK1B; 144% on DYRK2 (10 µM compound); 95% at DYRK3 (10 µM compound); 102% at CLK1; 95% on CLK2 (10 µM compound). Also, the remaining activity at 10 µM amounted to 127% at CLK3 (10 µM compound) and 84% at CLK4.

What is called IC50 is the point on the concentration scale where inhibition reaches its midpoint. With `N#Cc1c(CCC2OCCCO2)[nH]c2c(Cl)cccc12` [Compound 6l, 2-(2-(1,3-Dioxan-2-yl)ethyl)-7-chloro-1H-indole-3-carbonitrile], the IC50 on DYRK1A [1] was 3900 nM; at DYRK1B, over 10000 nM; on DYRK2, over 10000 nM; against DYRK3 it was over 10000 nM; against CLK1 it was 4900 nM; against CLK2 it was over 10000 nM. For the same compound, the results for the IC50 against CLK3 and at CLK4 were over 10000 nM and 4000 nM, respectively. Besides, the LLE at DYRK1A [2] is given as 2.57.

For `N#Cc1c(-c2ccc(Cl)cc2)[nH]c2c(Cl)cccc12` [Compound 6i, 7-Chloro-2-(4-chlorophenyl)-1H-indole-3-carbonitrile], the remaining activity at 10 µM on DYRK1A [1] was 60%; on CLK1 it was 68%. Besides, the “Residual Activity at 10 µM GSK3” value in the data set on GSK-3 is 112%.

Turning to `Cc1cccc2c(C#N)c(-c3ccccc3)[nH]c12` [Compound 6e, 7-Methyl-2-phenyl-1H-indole-3-carbonitrile], the remaining activity at 10 µM at DYRK1A [1] amounted to 35%; at DYRK1B, 74%; on DYRK2 (10 µM compound), 75%; on DYRK3 (10 µM compound) it was 105%; at CLK1, 56%; on CLK2 (10 µM compound), 75%. Besides, the remaining activity at 10 µM on CLK3 (10 µM compound) was 124%; on CLK4, 43%.

As to `COc1ccc(-c2[nH]c3c(Cl)cccc3c2C#N)cc1` [Compound 6j, 7-Chloro-2-(4-methoxyphenyl)-1H-indole-3-carbonitrile], the remaining activity at 10 µM on DYRK1A [1] came to 60%; at CLK1, 47%. Moreover, the “Residual Activity at 10 µM GSK3” value in the data set with GSK-3 was 118%.

Consider `Cn1cc(C#N)c2cccc(Cl)c21` [Compound 13c, 7-Chloro-1-methyl-1H-indole-3-carbonitrile], for which the remaining activity at 10 µM on DYRK1A [1] is 32%; on DYRK1B, 47%; on DYRK2 (10 µM compound), 117%; on DYRK3 (10 µM compound), 95%; on CLK1 it was 56%; on CLK2 (10 µM compound), 70%. In addition, the remaining activity at 10 µM stood at 97% at CLK3 (10 µM compound) and 30% at CLK4.

As a reminder, the inhibition is the change of the read-out against control, counted positive when it falls. `Cn1c(-c2ccccc2)c(C#N)c2cccc(Br)c21` [Compound 13e, 7-Bromo-1-methyl-2-phenyl-1H-indole-3-carbonitrile]: the IC50 was 2300 nM on DYRK1A [1], 10000 nM on DYRK1B, over 10000 nM against CLK1 and 1000 nM against CLK4. In addition, the inhibition at 10 µM at DYRK2 (10 µM compound, read-out: Inhibition at 10 µM DYRK2 (class symbol)) is under 20%; on DYRK3 (10 µM compound, read-out: Inhibition at 10 µM DYRK3 (class symbol)), under 20%; at CLK2 (10 µM compound, read-out: Inhibition at 10 µM CLK2 (class symbol)), under 20%; at CLK3 (10 µM compound, read-out: Inhibition at 10 µM CLK3 (class symbol)), under 20%. Moreover, the LLE on DYRK1A [2] is 1.15. The “Inhibition at 10 µM GSK3 (class symbol)” value in the data set with GSK-3 is recorded as “- (-: less than 20% inhibition at 10 µM, IC50 was not determined)”.

`COc1cccc(-c2[nH]c3c(I)cccc3c2C#N)c1` [Compound 6o, 7-Iodo-2-(3-methoxyphenyl)-1H-indole-3-carbonitrile]: the IC50 on DYRK1A [1] is 210 nM; on DYRK1B, 633 nM; at DYRK2, over 10000 nM; against DYRK3, over 10000 nM; against CLK1, 633 nM; at CLK2, 3300 nM. The values for the concentration for half-maximal inhibition (IC50) against CLK3 and against CLK4 were over 10000 nM and 290 nM, respectively. Moreover, the LLE on DYRK1A [2] is 2.41.

In general, viability refers to a read-out of living cells in per cent, often relative to untreated cells. Take `CN[C@@H]1C[C@H]2O[C@@](C)([C@@H]1OC)n1c3ccccc3c3c4c(c5c6ccccc6n2c5c31)C(=O)NC4` [Staurosporine, reference compound]: the viability at 3 days, 1 µM in data set [3] came to 20%.

Consider `C=CCc1[nH]c2c(Cl)cccc2c1C#N` [Compound 6k, 2-Allyl-7-chloro-1H-indole-3-carbonitrile], for which the IC50 at DYRK1A [1] is 690 nM; at DYRK1B it was 1300 nM; on DYRK2, over 10000 nM; against DYRK3 it was over 10000 nM; against CLK1, 533 nM; against CLK2, 1300 nM. Moreover, the half-inhibitory concentration (IC50) against CLK3 is over 10000 nM; at CLK4, 533 nM. Also, the LLE at DYRK1A [2] is listed as 2.77.

In the case of `COc1ccc(-c2[nH]c3c(I)cccc3c2C#N)cc1` [Compound 6n, 7-Iodo-2-(4-methoxyphenyl)-1H-indole-3-carbonitrile], the half-maximal inhibitory concentration (IC50) was 233 nM at DYRK1A [1]; over 10000 nM on DYRK1B; over 10000 nM against DYRK2; over 10000 nM at DYRK3; 333 nM against CLK1; over 10000 nM on CLK2. The values for the IC50 against CLK3 and against CLK4 were over 10000 nM and 220 nM, respectively. Also, the LLE on DYRK1A [2] is 2.36.

With `N#Cc1c(-c2ccc(Cl)cc2)[nH]c2c(I)cccc12` [Compound 6m, 7-Iodo-2-(4-chlorophenyl)-1H-indole-3-carbonitrile], the remaining activity at 10 µM on DYRK1A [1] is 42%; on DYRK1B, 79%; at DYRK2 (10 µM compound) it was 116%; at DYRK3 (10 µM compound), 101%; on CLK1, 55%; on CLK2 (10 µM compound), 92%. In addition, the values for the remaining activity at 10 µM at CLK3 (10 µM compound) and on CLK4 were 130% and 36%, respectively.
